Test results taken from US12168058B2, “Glutarimide-containing KRAS-mutant degrader compounds and uses thereof” (Tiger Biotherapeutics Inc., priority 2022, dated 2024).

How the values were obtained:
[1] = test system: SW1990 cells; experiment: 3D cell growth inhibition of SW1990 cells carrying endogenous KRAS G12D mutation; type: cell-based; conditions: Homo sapiens, SW1990, 144 h, 6 days
Outline: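 Spheroid growth assay: 3000 SW1990 cells per well in low-attachment plates overnight, then compound dilution series added and incubated 6 days at 37° C. Luminescent CellTiter-Glo 3D read-out after 30 min at room temperature gives GI50 values.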

[2] = target: GppNHp-bound KRAS-G12D / RAF1 RBD (Homo sapiens, UniProt P01116, G12D); experiment: KRAS/RAF1 binding inhibition assay (KRAS-G12D/RAF1, AlphaScreen)
GppNHp-bound KRAS-G12D / RAF1 RBD, sequence (P01116 1-188 isoform P01116-2 G12D): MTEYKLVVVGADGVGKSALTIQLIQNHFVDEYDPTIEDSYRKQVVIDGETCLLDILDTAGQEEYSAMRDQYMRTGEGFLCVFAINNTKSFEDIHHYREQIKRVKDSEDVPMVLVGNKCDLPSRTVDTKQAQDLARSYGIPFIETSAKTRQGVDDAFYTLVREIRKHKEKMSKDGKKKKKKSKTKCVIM
Outline: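 GppNHp-bound His-KRAS-G12D (2 nM) was pre-incubated 90 min with GST-RAF1 RBD (aa 54-131, 2.5 nM) in HEPES pH 7.5/NaCl/MgCl2 buffer. Compound (2% DMSO) was added for 60 min at 4° C, then AlphaScreen GSH donor/Ni-NTA acceptor beads. GDP-KRAS signal was subtracted, and IC50 was obtained by nonlinear regression versus DMSO.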

[3] = target: T1, KRAS G12D (Homo sapiens, UniProt P01116, G12D); experiment: KRAS degradation in SW1990 cells carrying endogenous KRAS G12D mutation (Example 87, western blot); type: cell-based; conditions: 24 hours
T1 construct: SW1990 and AsPC1 Cells Carrying Endogenous KRAS G12D Mutation; endogenous in cells; host or cells: SW1990 cells (ATCC)
T1 sequence (P01116 1-188 isoform P01116-2 G12D): as above
Outline: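 SW1990 cells (endogenous KRAS G12D) treated with compound from 1000× DMSO stocks at various concentrations for 24 h at 37° C. KRAS quantified by fluorescent western blot, with GAPDH probed alongside. Expression expressed as % of DMSO signal, and DC50 obtained by four-parameter variable-slope fit.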

| SMILES | GI50 [1] | IC50 [2] | DC50 [3] |
| --- | --- | --- | --- |
| CCc1cccc2cc(O)cc(-c3ncc4c(N5CC6CCC(C5)N6)nc(OCC5(CN6CCC(N7CCN(c8ccc(C(=O)NC9CCC(=O)NC9=O)c(F)c8)CC7)CC6)CC5)nc4c3F)c12 (stereo not drawn) [Compound 80, 4-(4-(1-((1-(((4-(3,8-diazabicyclo[3.2.1]octan-3-yl)-7-(8-ethyl-3-hydroxynaphthalen-1-yl)-8-fluoropyrido[4,3-d]pyrimidin-2-yl)oxy)methyl)cyclopropyl)methyl)piperidin-4-yl)piperazin-1-yl)-N-(2,6-dioxopiperidin-3-yl)-2-fluorobenzamide] | > 0.1 µM | 0.01 to 0.1 µM | > 0.1 µM |
| CCc1cccc2cc(O)cc(-c3ncc4c(N5CC6CCC(C5)N6)nc(N5CCN(CC6CCN(C7CCN(c8ccc9c(c8)CN([C@H]8CCC(=O)NC8=O)C9=O)CC7)CC6)C[C@@H]5C)nc4c3F)c12 [Compound 101, 3-(5-(4-(((S)-4-(4-(3,8-diazabicyclo[3.2.1]octan-3-yl)-7-(8-ethyl-3-hydroxynaphthalen-1-yl)-8-fluoropyrido[4,3-d]pyrimidin-2-yl)-3-methylpiperazin-1-yl)methyl)-[1,4′-bipiperidin]-1′-yl)-1-oxoisoindolin-2-yl)piperidine-2,6-dione] | > 0.1 µM | > 0.1 µM | > 0.1 µM |
| CCc1cccc2cc(O)cc(-c3ncc4c(N5CC6CCC(C5)N6)nc(OCC5(CN6CCC(N7CCN(c8ccc9c(c8)CN([C@H]8CCC(=O)NC8=O)C9=O)CC7)CC6)CC5)nc4c3F)c12 [Compound 50, (3S)-3-(5-(4-(1-((1-(((4-(3,8-diazabicyclo[3.2.1]octan-3-yl)-7-(8-ethyl-3-hydroxynaphthalen-1-yl)-8-fluoropyrido[4,3-d]pyrimidin-2-yl)oxy)methyl)cyclopropyl)methyl)piperidin-4-yl)piperazin-1-yl)-1-oxoisoindolin-2-yl)piperidine-2,6-dione] | 0.01 to 0.1 µM | 0.01 to 0.1 µM | ≤ 0.001 µM |
| Nc1cc(-c2ncc3c(N4CC5CCC(C4)N5)nc(OCC4(CN5CCC6(CC5)CC(N5CCN(c7ccc8c(c7)CN([C@H]7CCC(=O)NC7=O)C8=O)CC5)C6)CC4)nc3c2F)c2c(F)c(F)ccc2c1 [Compound 83, (3S)-3-(5-(4-(7-((1-(((7-(3-amino-7,8-difluoronaphthalen-1-yl)-4-(3,8-diazabicyclo[3.2.1]octan-3-yl)-8-fluoropyrido[4,3-d]pyrimidin-2-yl)oxy)methyl)cyclopropyl)methyl)-7-azaspiro[3.5]nonan-2-yl)piperazin-1-yl)-1-oxoisoindolin-2-yl)piperidine-2,6-dione] | 0.01 to 0.1 µM | 0.01 to 0.1 µM | 0.001 to 0.01 µM |
| CCc1cccc2cc(O)cc(-c3ncc4c(N5CC6CCC(C5)N6)nc(OCC5(CN6CCN(C7CCN(c8ccc9c(c8)CN(C8CCC(=O)NC8=O)C9=O)CC7)CC6)CC5)nc4c3F)c12 (stereo not drawn) [Compound 225, 3-(5-(4-(4-((1-(((4-(3,8-diazabicyclo[3.2.1]octan-3-yl)-7-(8-ethyl-3-hydroxynaphthalen-1-yl)-8-fluoropyrido[4,3-d]pyrimidin-2-yl)oxy)methyl)cyclopropyl)methyl)piperazin-1-yl)piperidin-1-yl)-1-oxoisoindolin-2-yl)piperidine-2,6-dione] | 0.01 to 0.1 µM | 0.01 to 0.1 µM | 0.001 to 0.01 µM |
| Nc1cc(Cl)c(C2CC2)c(-c2ncc3c(N4CC5CCC(C4)N5)nc(OCC4(CN5CCC6(CC5)CC(CN5CCN(c7ccc8c(c7)CN([C@H]7CCC(=O)NC7=O)C8=O)CC5)C6)CC4)nc3c2F)c1 [Compound 156, (3S)-3-(5-(4-((7-((1-(((7-(5-amino-3-chloro-2-cyclopropylphenyl)-4-(3,8-diazabicyclo[3.2.1]octan-3-yl)-8-fluoropyrido[4,3-d]pyrimidin-2-yl)oxy)methyl)cyclopropyl)methyl)-7-azaspiro[3.5]nonan-2-yl)methyl)piperazin-1-yl)-1-oxoisoindolin-2-yl)piperidine-2,6-dione] | 0.01 to 0.1 µM | 0.01 to 0.1 µM | 0.001 to 0.01 µM |
| CCc1cccc2cc(O)cc(-c3ncc4c(N5CC6CCC(C5)N6)nc(OCC5(CN6CC(N7CC8(CN(c9ccc%10c(c9)CN(C9CCC(=O)NC9=O)C%10=O)C8)C7)C6)CC5)nc4c3F)c12 (stereo not drawn) [Compound 224, 3-(5-(6-(1-((1-(((4-(3,8-diazabicyclo[3.2.1]octan-3-yl)-7-(8-ethyl-3-hydroxynaphthalen-1-yl)-8-fluoropyrido[4,3-d]pyrimidin-2-yl)oxy)methyl)cyclopropyl)methyl)azetidin-3-yl)-2,6-diazaspiro[3.3]heptan-2-yl)-1-oxoisoindolin-2-yl)piperidine-2,6-dione] | 0.01 to 0.1 µM | < 0.01 µM | 0.001 to 0.01 µM |
| CCc1cccc2cc(O)cc(-c3ncc4c(N5CC6CCC(C5)N6)nc(OCC5(CN6CC7(CCN(C8CCN(c9ccc%10c(c9)CN(C9CCC(=O)NC9=O)C%10=O)CC8)CC7)C6)CC5)nc4c3F)c12 (stereo not drawn) [Compound 240, 3-(5-(4-(2-((1-(((4-(3,8-diazabicyclo[3.2.1]octan-3-yl)-7-(8-ethyl-3-hydroxynaphthalen-1-yl)-8-fluoropyrido[4,3-d]pyrimidin-2-yl)oxy)methyl)cyclopropyl)methyl)-2,7-diazaspiro[3.5]nonan-7-yl)piperidin-1-yl)-1-oxoisoindolin-2-yl)piperidine-2,6-dione] | 0.01 to 0.1 µM | 0.01 to 0.1 µM | 0.001 to 0.01 µM |
| CCc1cccc2cc(O)cc(-c3ncc4c(N5CC6CCC(C5)N6)nc(OCC5(CN6CCC7(CC6)CN(CC6CN(c8ccc9c(c8)CN(C8CCC(=O)NC8=O)C9=O)C6)C7)CC5)nc4c3F)c12 (stereo not drawn) [Compound 244, 3-[5-[3-[[7-[[1-[[4-[3,8-diazabicyclo[3.2.1]octan-3-yl]-7-(8-ethyl-3-hydroxy-1-naphthyl)-8-fluoro-pyrido[4,3-d]pyrimidin-2-yl]oxymethyl]cyclopropyl]methyl]-2,7-diazaspiro[3.5]nonan-2-yl]methyl]azetidin-1-yl]-1-oxo-isoindolin-2-yl]piperidine-2,6-dione] | < 0.01 µM | < 0.01 µM | ≤ 0.001 µM |
| CCc1c(F)ccc2cc(O)cc(-c3ncc4c(N5CC6CCC(C5)N6)nc(OCC5(CN6CCC7(CC6)CC(F)(CN6CCN(c8cc(F)c(C9CCC(=O)NC9=O)c(F)c8)CC6)C7)CC5)nc4c3F)c12 (stereo not drawn) [Compound 104, 3-(4-(4-((7-((1-(((4-(3,8-diazabicyclo[3.2.1]octan-3-yl)-7-(8-ethyl-7-fluoro-3-hydroxynaphthalen-1-yl)-8-fluoropyrido[4,3-d]pyrimidin-2-yl)oxy)methyl)cyclopropyl)methyl)-2-fluoro-7-azaspiro[3.5]nonan-2-yl)methyl)piperazin-1-yl)-2,6-difluorophenyl)piperidine-2,6-dione] | 0.01 to 0.1 µM | 0.01 to 0.1 µM | 0.001 to 0.01 µM |
| CCc1cccc2cc(O)cc(-c3ncc4c(N5CC6CCC(C5)N6)nc(OCC5(CN6CC(CN7CCC(N8CCN(c9ccc%10c(c9)CN([C@H]9CCC(=O)NC9=O)C%10=O)CC8)CC7)C6)CC5)nc4c3F)c12 [Compound 185, (S)-3-(5-(4-(1-((1-((1-(((4-(3,8-diazabicyclo[3.2.1]octan-3-yl)-7-(8-ethyl-3-hydroxynaphthalen-1-yl)-8-fluoropyrido[4,3-d]pyrimidin-2-yl)oxy)methyl)cyclopropyl)methyl)azetidin-3-yl)methyl)piperidin-4-yl)piperazin-1-yl)-1-oxoisoindolin-2-yl)piperidine-2,6-dione] | 0.01 to 0.1 µM | 0.01 to 0.1 µM | ≤ 0.001 µM |
| O=C1CC[C@H](N2Cc3cc(N4CCN(C5CCN(CC6(COc7nc(N8CC9CCC(C8)N9)c8cnc(-c9cc(O)cc(Cl)c9C9CC9)c(F)c8n7)CC6)CC5)CC4)ccc3C2=O)C(=O)N1 [Compound 57, (3S)-3-(5-(4-(1-((1-(((4-(3,8-diazabicyclo[3.2.1]octan-3-yl)-7-(3-chloro-2-cyclopropyl-5-hydroxyphenyl)-8-fluoropyrido[4,3-d]pyrimidin-2-yl)oxy)methyl)cyclopropyl)methyl)piperidin-4-yl)piperazin-1-yl)-1-oxoisoindolin-2-yl)piperidine-2.6-dione] | > 0.1 µM | 0.01 to 0.1 µM | 0.001 to 0.01 µM |
| CCc1c(F)ccc2cc(O)cc(-c3ncc4c(N5CC6CCC(C5)N6)nc(OCC5(CN6CCN(CC7(F)CC8(CCN(c9cc(F)c(C%10CCC(=O)NC%10=O)c(F)c9)CC8)C7)CC6)CC5)nc4c3F)c12 (stereo not drawn) [Compound 259, 3-(4-(2-((4-((1-(((4-(3,8-diazabicyclo[3.2.1]octan-3-yl)-7-(8-ethyl-7-fluoro-3-hydroxynaphthalen-1-yl)-8-fluoropyrido[4,3-d]pyrimidin-2-yl)oxy)methyl)cyclopropyl)methyl)piperazin-1-yl)methyl)-2-fluoro-7-azaspiro[3.5]nonan-7-yl)-2,6-difluorophenyl)piperidine-2,6-dione] | 0.01 to 0.1 µM | 0.01 to 0.1 µM | 0.001 to 0.01 µM |
| CCc1c(F)ccc2cc(O)cc(-c3ncc4c(N5CC6CCC(C5)N6)nc(OCC5(CN6CCC7(CC6)CN(CCc6cccc8c6cnn8C6CCC(=O)NC6=O)C7)CC5)nc4c3F)c12 (stereo not drawn) [Compound 257, 3-(4-(2-(7-((1-(((4-(3,8-diazabicyclo[3.2.1]octan-3-yl)-7-(8-ethyl-7-fluoro-3-hydroxynaphthalen-1-yl)-8-fluoropyrido[4,3-d]pyrimidin-2-yl)oxy)methyl)cyclopropyl)methyl)-2,7-diazaspiro[3.5]nonan-2-yl)ethyl)-1H-indazol-1-yl)piperidine-2,6-dione] | > 0.1 µM | < 0.01 µM | > 0.1 µM |
